Experimental data published in article PMC12121777 (PLOS One, 2025).
Converted amounts (≈) assume the structure as drawn. Like-named read-outs stand apart in the source and are kept apart here.

Legend:
Mtb 331/88 (i.e., H37Rv) = assay: MIC, micro method in Šula's semisynthetic medium, drug-susceptible Mtb; format: cell-based, Mycobacterium tuberculosis; conditions: Mycobacterium tuberculosis, H37RV
[1] = tested on: Mycobacterium avium 330/88; assay: MIC, micro method in Šula's semisynthetic medium, M. avium; format: cell-based
[2] = tested on: Mycobacterium kansasii 6509/96; assay: MIC, micro method in Šula's semisynthetic medium, M. kansasii clinical isolate; format: cell-based; conditions: read-out: MIC M. kansasii 6509/96
HepG2 cells = assay: Cytotoxicity on HepG2 cell line (CellTiter 96); format: cell-based, human; conditions: Homo sapiens, HepG2, 24 h, read-out: IC50 HepG2
[3] = 330/88, 336 h, read-out: MIC M. avium 330/88
[4] = 330/88, 504 h, read-out: MIC M. avium 330/88

In the case of `CNC(=O)NNC(=O)c1cc([N+](=O)[O-])cc([N+](=O)[O-])c1` [Compound 4a, 2-(3,5-Dinitrobenzoyl)-N-methylhydrazine-1-carboxamide], the MIC (Mtb 331/88 (i.e., H37Rv); 336 h, 14 days) is reported as > 32 µM, the MIC (Mtb 331/88 (i.e., H37Rv); 504 h, 21 days) is reported as > 32 µM and the MIC [1, 3] is reported as 1000 µM (≈ 283 µg/mL). The MIC [1, 4] was 1000 µM (≈ 283 µg/mL), the MIC ([2]; 6509/96, 168 h) was 250 µM (≈ 70.8 µg/mL) and the MIC ([2]; 6509/96, 336 h) was 500 µM (≈ 142 µg/mL). For the same molecule, the MIC ([2]; 6509/96, 504 h) was 500 µM (≈ 142 µg/mL).

With `CCNC(=O)NNC(=O)c1cc([N+](=O)[O-])cc([N+](=O)[O-])c1` [Compound 4b, 2-(3,5-Dinitrobenzoyl)-N-ethylhydrazine-1-carboxamide] the MIC (Mtb 331/88 (i.e., H37Rv); 336 h, 14 days) was 32 µM (≈ 9.51 µg/mL), the MIC (Mtb 331/88 (i.e., H37Rv); 504 h, 21 days) was > 32 µM and the MIC [1, 3] was 1000 µM (≈ 297 µg/mL). It also gave an MIC [1, 4] of 1000 µM (≈ 297 µg/mL), an MIC ([2]; 6509/96, 168 h) of 64 µM (≈ 19 µg/mL) and an MIC ([2]; 6509/96, 336 h) of 125 µM (≈ 37.2 µg/mL). For the same molecule, the MIC ([2]; 6509/96, 504 h) was 125 µM (≈ 37.2 µg/mL).

In the case of `CCCNC(=O)NNC(=O)c1cc([N+](=O)[O-])cc([N+](=O)[O-])c1` [Compound 4c, 2-(3,5-Dinitrobenzoyl)-N-propylhydrazine-1-carboxamide], the MIC (Mtb 331/88 (i.e., H37Rv); 336 h, 14 days) is reported as 16 µM (≈ 4.98 µg/mL), the MIC (Mtb 331/88 (i.e., H37Rv); 504 h, 21 days) is reported as 16 µM (≈ 4.98 µg/mL) and the MIC [1, 3] is reported as 1000 µM (≈ 311 µg/mL). The MIC [1, 4] was 1000 µM (≈ 311 µg/mL), the MIC ([2]; 6509/96, 168 h) was 8 µM (≈ 2.49 µg/mL) and the MIC ([2]; 6509/96, 336 h) was 16 µM (≈ 4.98 µg/mL). The MIC ([2]; 6509/96, 504 h) was 16 µM (≈ 4.98 µg/mL).

`CCCCNC(=O)NNC(=O)c1cc([N+](=O)[O-])cc([N+](=O)[O-])c1` [Compound 4d, N-Butyl-2-(3,5-dinitrobenzoyl)hydrazine-1-carboxamide] showed an MIC (Mtb 331/88 (i.e., H37Rv); 336 h, 14 days) of 2 µM (≈ 0.651 µg/mL), an MIC (Mtb 331/88 (i.e., H37Rv); 504 h, 21 days) of 2 µM (≈ 0.651 µg/mL) and an MIC [1, 3] of 1000 µM (≈ 325 µg/mL). It also gave an MIC [1, 4] of 1000 µM (≈ 325 µg/mL), an MIC ([2]; 6509/96, 168 h) of 2 µM (≈ 0.651 µg/mL) and an MIC ([2]; 6509/96, 336 h) of 4 µM (≈ 1.3 µg/mL). The MIC ([2]; 6509/96, 504 h) was 4 µM (≈ 1.3 µg/mL) and the IC50 (HepG2 cells) was 198 µM.

Molecule `CCCCCNC(=O)NNC(=O)c1cc([N+](=O)[O-])cc([N+](=O)[O-])c1` [Compound 4e, 2-(3,5-Dinitrobenzoyl)-N-pentylhydrazine-1-carboxamide] has an MIC (Mtb 331/88 (i.e., H37Rv); 336 h, 14 days) of 1 µM (≈ 0.339 µg/mL), an MIC (Mtb 331/88 (i.e., H37Rv); 504 h, 21 days) of 1 µM (≈ 0.339 µg/mL) and an MIC [1, 3] of 1000 µM (≈ 339 µg/mL). For the same molecule, the MIC [1, 4] was 1000 µM (≈ 339 µg/mL), the MIC ([2]; 6509/96, 168 h) was 1 µM (≈ 0.339 µg/mL) and the MIC ([2]; 6509/96, 336 h) was 1 µM (≈ 0.339 µg/mL). The MIC ([2]; 6509/96, 504 h) was 2 µM (≈ 0.679 µg/mL) and the IC50 (HepG2 cells) was 134 µM.

With `CCCCCCNC(=O)NNC(=O)c1cc([N+](=O)[O-])cc([N+](=O)[O-])c1` [Compound 4f, 2-(3,5-Dinitrobenzoyl)-N-hexylhydrazine-1-carboxamide] the MIC (Mtb 331/88 (i.e., H37Rv); 336 h, 14 days) was 1 µM (≈ 0.353 µg/mL), the MIC (Mtb 331/88 (i.e., H37Rv); 504 h, 21 days) was 1 µM (≈ 0.353 µg/mL) and the MIC [1, 3] was 250 µM (≈ 88.3 µg/mL). It also gave an MIC [1, 4] of 250 µM (≈ 88.3 µg/mL), an MIC ([1]; 330/88, read-out: MIC M. avium) of 125 to 250 µM (≈ 44.2 to 88.3 µg/mL) and an MIC ([2]; 6509/96, 168 h) of 1 µM (≈ 0.353 µg/mL). The MIC ([2]; 6509/96, 336 h) was 1 µM (≈ 0.353 µg/mL), the MIC ([2]; 6509/96, 504 h) was 1 µM (≈ 0.353 µg/mL) and the IC50 (HepG2 cells) was 119 µM.

In the case of `CCCCCCCNC(=O)NNC(=O)c1cc([N+](=O)[O-])cc([N+](=O)[O-])c1` [Compound 4g, 2-(3,5-Dinitrobenzoyl)-N-heptylhydrazine-1-carboxamide], the MIC (Mtb 331/88 (i.e., H37Rv); 336 h, 14 days) is reported as 0.5 µM (≈ 0.184 µg/mL), the MIC (Mtb 331/88 (i.e., H37Rv); 504 h, 21 days) is reported as 0.5 µM (≈ 0.184 µg/mL) and the MIC [1, 3] is reported as 125 µM (≈ 45.9 µg/mL). For the same molecule, the MIC [1, 4] was 250 µM (≈ 91.8 µg/mL), the MIC ([1]; 330/88, read-out: MIC M. avium) was 125 to 250 µM (≈ 45.9 to 91.8 µg/mL) and the MIC ([2]; 6509/96, 168 h) was 1 µM (≈ 0.367 µg/mL). The MIC ([2]; 6509/96, 336 h) was 1 µM (≈ 0.367 µg/mL), the MIC ([2]; 6509/96, 504 h) was 1 µM (≈ 0.367 µg/mL) and the IC50 (HepG2 cells) was 117 µM.

`CCCCCCCCCCCCCCCCNC(=O)NNC(=O)c1cc([N+](=O)[O-])cc([N+](=O)[O-])c1` [Compound 4p, 2-(3,5-Dinitrobenzoyl)-N-hexadecylhydrazine-1-carboxamide] was tested, and the MIC (Mtb 331/88 (i.e., H37Rv); 336 h, 14 days) was 8 µM (≈ 3.95 µg/mL), the MIC (Mtb 331/88 (i.e., H37Rv); 504 h, 21 days) was 16 µM (≈ 7.9 µg/mL) and the MIC [1, 3] was > 1000 µM. The MIC [1, 4] was > 1000 µM, the MIC ([2]; 6509/96, 168 h) was 8 µM (≈ 3.95 µg/mL) and the MIC ([2]; 6509/96, 336 h) was 16 µM (≈ 7.9 µg/mL). The MIC ([2]; 6509/96, 504 h) was 16 µM (≈ 7.9 µg/mL).

With `CCCCCCCCCCCCCCCCCNC(=O)NNC(=O)c1cc([N+](=O)[O-])cc([N+](=O)[O-])c1` [Compound 4q, 2-(3,5-Dinitrobenzoyl)-N-heptadecylhydrazine-1-carboxamide] the MIC (Mtb 331/88 (i.e., H37Rv); 336 h, 14 days) was 8 µM (≈ 4.06 µg/mL), the MIC (Mtb 331/88 (i.e., H37Rv); 504 h, 21 days) was 16 µM (≈ 8.12 µg/mL) and the MIC [1, 3] was > 500 µM. For the same molecule, the MIC [1, 4] was > 500 µM, the MIC ([2]; 6509/96, 168 h) was 8 µM (≈ 4.06 µg/mL) and the MIC ([2]; 6509/96, 336 h) was 16 µM (≈ 8.12 µg/mL). For the same molecule, the MIC ([2]; 6509/96, 504 h) was 16 µM (≈ 8.12 µg/mL).

`CCCCCCCCCCCCCCCCCCNC(=O)NNC(=O)c1cc([N+](=O)[O-])cc([N+](=O)[O-])c1` [Compound 4r, 2-(3,5-Dinitrobenzoyl)-N-octadecylhydrazine-1-carboxamide] was tested, and the MIC (Mtb 331/88 (i.e., H37Rv); 336 h, 14 days) was 8 µM (≈ 4.17 µg/mL), the MIC (Mtb 331/88 (i.e., H37Rv); 504 h, 21 days) was 16 µM (≈ 8.35 µg/mL) and the MIC [1, 3] was > 1000 µM. The MIC [1, 4] was > 1000 µM, the MIC ([2]; 6509/96, 168 h) was 8 µM (≈ 4.17 µg/mL) and the MIC ([2]; 6509/96, 336 h) was 16 µM (≈ 8.35 µg/mL). It also gave an MIC ([2]; 6509/96, 504 h) of 16 µM (≈ 8.35 µg/mL).

`CNc1nnc(-c2cc([N+](=O)[O-])cc([N+](=O)[O-])c2)o1` [Compound 5a, 5-(3,5-Dinitrophenyl)-N-methyl-1,3,4-oxadiazol-2-amine] gave an MIC (Mtb 331/88 (i.e., H37Rv); 336 h, 14 days) of 8 µM (≈ 2.12 µg/mL), an MIC (Mtb 331/88 (i.e., H37Rv); 504 h, 21 days) of 16 µM (≈ 4.24 µg/mL) and an MIC [1, 3] of 500 µM (≈ 133 µg/mL). The MIC [1, 4] was 500 µM (≈ 133 µg/mL), the MIC ([2]; 6509/96, 168 h) was 16 µM (≈ 4.24 µg/mL) and the MIC ([2]; 6509/96, 336 h) was 32 µM (≈ 8.49 µg/mL). It also gave an MIC ([2]; 6509/96, 504 h) of 32 µM (≈ 8.49 µg/mL).

With `CCNc1nnc(-c2cc([N+](=O)[O-])cc([N+](=O)[O-])c2)o1` [Compound 5b, 5-(3,5-Dinitrophenyl)-N-ethyl-1,3,4-oxadiazol-2-amine] the MIC (Mtb 331/88 (i.e., H37Rv); 336 h, 14 days) was 8 µM (≈ 2.23 µg/mL), the MIC (Mtb 331/88 (i.e., H37Rv); 504 h, 21 days) was 16 µM (≈ 4.47 µg/mL) and the MIC [1, 3] was > 1000 µM. The MIC [1, 4] was > 1000 µM, the MIC ([1]; 330/88, read-out: MIC M. avium) was > 1000 µM and the MIC ([2]; 6509/96, 168 h) was 16 µM (≈ 4.47 µg/mL). For the same molecule, the MIC ([2]; 6509/96, 336 h) was 32 µM (≈ 8.93 µg/mL) and the MIC ([2]; 6509/96, 504 h) was 32 µM (≈ 8.93 µg/mL).
